Data as given in US20240299290A1, “METHODS AND COMPOSITIONS FOR RAPID DELIVERY OF ANTI-SEIZURE THERAPEUTICS” (Neurelis, Inc., priority 2021, published 2024).
Several values for one entry are separate records, joined by “and”; a condition that tells them apart may be missing. Identical values can stand only once. Entries after “also recorded” stand apart in the source; their conditions may differ. Like-named read-outs stand apart in the source and are kept apart here.

Legend:
[1] = tested on: seizure activity (beta frequency by EEG); test: Change in beta frequency by EEG; details: intranasal 20 mg via intranasal composition
[2] = not given; remark: listed apart in the source
[3] = Safety results of the PK profile crossover study
seizure = test: Rapid onset of therapeutic effect: seizure cessation measured by EEG after intranasal diazepam; details: for Time to Seizure Cessation: dosed during seizure, individual subjects
[4] = safety population, 163 subjects
[5] = 24 subjects, all three diazepam treatments

For `CN1C(=O)CN=C(c2ccccc2)c2cc(Cl)ccc21` [diazepam, 7-chloro-1,3-dihydro-1-methyl-5-phenyl-2H-1,4-benzodiazepin-2-one], the “time to changes in beta frequency (EEG)” value [1] was no more than 6 min, the “TEAE: seizure, nasopharyngitis, nasal discomfort (each)” value (2 of 57 subjects each) was 3.5% and the “TEAE: dysgeusia” value (3 of 57 subjects) was 5.3%. For the same molecule, the “PK profile in seizure versus non-seizure state” value (5-20 mg intranasal, subjects with epilepsy, any age group or dose) was “not notably altered”, the “subjects with treatment-related AEs” value (8 of 57 subjects) was 14.0% and the “subjects with at least one AE” value (17 out of 57 subjects) was 29.8%. The suicidal ideation post-dosing (57 subjects) was “No subjects”, the respiratory depression ([2]; 163 subjects) was “no incidents” and the “Treatment-related AE: epistaxis, dysgeusia, somnolence (each)” value [2, 4] was 3 subjects. The “Treatment-related AE: headache” value [2, 4] was 4 subjects, the “Treatment-related AE: nasal discomfort” value [2, 4] was 10 subjects and the “each of the 14 single-subject treatment-related AEs (nasal mucosal disorder to rash)” value [2, 4] was 0.6%. The “subjects with at least one AE” value [2, 4] was 134 subjects, the “subjects with at least one AE/TEAE” value [2, 4] was 82.2% and the “subjects with treatment-related AEs” value [2, 4] was 30 subjects. The “subjects with treatment-related AEs/TEAEs” value [2, 4] was 18.4%, the “treatment-related AEs that were serious” value [2, 4] was “None” and the overall safety conclusion ([2]; subjects with epilepsy, intranasal) was “safe and well tolerated; also recorded: good safety profile”. For the same molecule, the “AE: epistaxis” value [3, 5] was 7 subjects, the “AE: somnolence” value [3, 5] was 6 subjects and the “AE: somnolence” value ([3]; each of the intranasal dosages (suspension, solution)) was 1 subject. The reports of epistaxis ([3]; intranasal) was 3 events, the tolerability ([3]; intranasal suspension and solution, 10 mg) was “well-tolerated” and the “Time to Seizure Cessation” value (seizure; 10 mg intranasal) was 1 min and <1 min (2×). For the same molecule, the “Time to Seizure Cessation” value (seizure; 15 mg intranasal) was <1 min (6×) and 1 min (2×), the “Time to Seizure Cessation” value (seizure; 20 mg intranasal) was <1 min (12×) and 1 min and the “Cessation of the seizure, as measured by EEG” value (seizure; 10, 15 or 20 mg intranasal during active seizure, all but one of the subjects) was no more than 1 min. For the same molecule, the “subsequent seizure during the period of observation” value (seizure; intranasal, dosed after seizure had ended) was “no subsequent seizure was experienced by any of the subjects”.
